Results on one compound are retold here after US20230295571A1, “COMPOSITIONS AND METHODS FOR STEM CELL CHONDROGENESIS” (Washington University, priority 2020, published 2023).

Assay type in all cases: cell-based, human
For assay [1], the system named is hiPSC chondrogenic pellets. Description: Biochemical analysis of cartilaginous matrix production (GAG/DNA) in hiPSC chondrogenic pellets. To be noted: 1 μM inhibitor + TGF-β3 during pellet culture, d28/d42, vs TGF-β3 or other regimens. As for the experimental part: (§1) Chondrogenic differentiation. Cells dissociated at the Cp stage were resuspended at 5×10^5 cells per mL in chondrogenic medium consisting of DMEM/F-12, 1% FBS, 1% ITS+, 55 μM β-mertcaptoethanol, 100 nM dexamethasone (DEX; Sigma-Aldrich, #D4902), 1% NEAA (Gibco, #11140050), 1% P/S, 10 ng ml^−1 human transforming growth factor-beta 3 (TGF-β3; R&D Systems, #243-B3-010), 50 μg ml^−1 L-ascorbic acid 2-phosphate (ascorbate; Sigma-Aldrich, #A8960), and 40 μg ml^−1 L-Proline (proline; Sigma-Aldrich, #P5607). Cells were then centrifuged for 5 min at 300×g to form a pellet. Chondrogenic pellets were cultured at 37° C. for up to the timepoints required for various experiments.
(§2) WNT-C59 and ML329 treatment for WNT and MITF inhibition. For WNT-C59 treatment for WNT inhibition during chondrogenesis, pellets were treated with either 10 ng ml^−1 TGF-β3 (control group) or a combination of 10 ng ml^−1 TGF-β3 and 1 μM WNT-C59 in a chondrogenic medium from d0 to d42 as appropriate. […]
(§3) Biochemical analysis of cartilaginous matrix production. […] GAG content, as calculated based on the standard curve, was normalized to double-stranded DNA content to obtain the GAG/DNA ratio.

Another assay concerns hMSC pellets. The assay can be described thus: Chondrogenesis of hMSC pellets with WNT inhibition (Saf-O, GAG/DNA).
Excerpt: hMSCs and culture. Discarded and deidentified waste tissue from the iliac crests of adult bone marrow transplant donors was collected in accordance with the institutional review board of Washington University in Saint Louis. Human bone marrow-derived MSCs (hMSCs) were isolated by their physical adherence to plastic culture vessels. Cells were expanded and maintained in an expansion medium consisting of DMEM-low glucose (Thermo Fisher Scientific, #11885092), 1 penicillin/streptomycin (P/S, Thermo Fisher Scientific, #15140-122), 10% lot-selected FBS (Atlanta Biologicals, #S11550), and 1 ng ml^−1 basic fibroblast growth factor (FGF) (R&D Systems, #233-FB). Three individual donors were used as biologic replicates in subsequent experiments.
as §2, §3

Assay [2] deals with hiPSC chondrogenic pellets. Description: Safranin-O histology of hiPSC chondrogenic pellets. The procedure: as §1
WNT-C59 and ML329 treatment for WNT and MITF inhibition. For WNT-C59 treatment for WNT inhibition during chondrogenesis, pellets were treated with either 10 ng ml^−1 TGF-β3 (control group) or a combination of 10 ng ml^−1 TGF-β3 and 1 μM WNT-C59 in a chondrogenic medium from d0 to d42 as appropriate. For WNT-C59 and ML329 treatment (ML, Axon Medchem, HY-101464) for WNT and MITF inhibition during chondrogenesis, pellets were treated with either 10 ng ml^−1 TGF-β3 (control group), a combination of 10 ng ml^−1 TGF-β3 and 1 μM ML, a combination of 10 ng ml^−1 TGF-β3 and 1 μM WNT-C59, or a combination of 10 ng ml^−1 TGF-β3, 1 μM ML and 1 μM WNT-C59 in chondrogenic medium from d0 to d42 as appropriate. […]

In the case of `Cc1cc(-c2ccc(CC(=O)Nc3ccc(-c4cccnc4)cc3)cc2)ccn1` [WNT-C59], the GAG/DNA ratio result in assay [1] was “significantly increased”. The “GAG/DNA ratio of hMSC pellets” value in the assay on hMSC pellets (donor 1 and donor 3, vs TGF-β3 alone) is listed as “significantly increased”. The “chondrogenesis of hMSC pellets” value with hMSC pellets (hMSCs from 3 donors, WNT-C59 during pellet culture) is given as “increased”. The “chondrogenesis when WNTs inhibited at the Cp stage” value in assay [2] (WNT-C59 at Cp stage) is reported as “severely impaired”. In assay [2] (treatment during pellet culture, vs standard TGF-β3), the “chondrocyte homogeneity (Saf-O staining)” value is on record as “increased”.
